Laboratory results published in patent publication US8962322B2, “Enhancers of induced pluripotent stem cell reprogramming” (City of Hope, priority 2012, dated 2015).

tested on: human Oct4 promoter; assay: Oct4-luc luciferase reporter assay (stably transfected CV1 cells); type: cell-based; settings: Homo sapiens, CV-1, 24 h; compound at 1 μM, Oct4-luc cells, triplicates; read-out: Oct4-luc Activity
Excerpt: A high-throughput screening scheme was designed to identify Oct4 promoter-activating compounds using a luciferase reporter under the control of the human Oct4 promoter (Oct4-luc). […] A stable cell line (Oct4-luc) that expresses luciferase reporter driven by the exogenous Oct4 promoter was established using hygromycin-resistance as a selection marker. These Oct4-luc cells were used for high-throughput screening of a chemical library of 80,000 compounds. The luciferase reporter activity was measured 24 hr after compound treatment. Solvent treatment was included as a negative control.
(§1) Then the promoter sequences were cloned into pGL4.4-luc-Hyg vector (Promega) to get Oct4-luc or Nanog-luc construct and the fidelity of the Oct4 and Nanog promoter DNA sequences was confirmed by bi-directional sequencing. CV 1 cells were transfected with the Oct4-luc or Nanog-luc constructs and the stably-transfected cells were selected by hygromycine resistance.
Compound Screening: The Oct4-luc cells were seeded at 1.75×10^4 cells per well density into 96-well plates. Compounds were added to cells one day after cell seeding at the concentration of 10 μM for 24 hr in the High-Throughput Screening core facility at City of Hope. Compounds that induced luciferase activity 3-fold or more were selected for further validation in both Oct4-luc and Nanog-luc cells.
(§2) Luciferase Reporter Assays: The Oct4-luc or Nanog-luc cells were treated with compound OAC 1 or its structural analogs at 1 μM concentration or at indicated concentrations in triplicates. Other compounds used include 2 μM BIO, 2 μM BIX, 2 μM
(§3) AzaC, 25 μg/ml Vc, 10 nM Am580, 5 μM tranylcypromine, and 0.5 mM VPA. Luciferase reporter assays were performed as described (51) 24 hr after compound treatment or at indicated time points. For Topflash reporter assays, 0.2 μg β-catenin-responsive Topflash reporter gene plasmid was introduced into CV1 cells using trasfection (Bio-Rad). Compounds were added 6 hr after transfection. Luciferase activity was measured 48 hr after compound treatment using the Glo Luciferase Assay System (Promega).

Row | SMILES | fold induction at 1 µM
1 | O=C(Nc1ccc2[nH]ncc2c1)c1c(F)c(F)c(F)c(F)c1F [Compound C36] | < 1.8
2 | O=C(CCCCC1SCC2NC(=O)NC21)NCc1ccc(C(=O)Nc2ccc3[nH]ncc3c2)cc1 (centres unmarked) [Compound C42] | < 1.8
3 | Nc1ccc(C(=O)Nc2ccc3[nH]ncc3c2)cc1 [Compound C39] | < 1.8
4 | NCc1ccc(C(=O)Nc2ccc3[nH]ncc3c2)cc1 [Compound C41] | < 1.8
5 | COc1ccc(Cl)cc1C(=O)Nc1ccc2[nH]ncc2c1 [Compound C34] | < 1.8
6 | CC(C)(C)OC(=O)Nc1ccc(C(=O)Nc2ccc3[nH]ncc3c2)cc1 [Compound C38] | < 1.8
7 | COc1cc(OC)c(C(=O)Nc2ccc3[nH]ncc3c2)cc1OC [Compound C33] | < 1.8
8 | COc1cc(C(=O)Nc2ccc3[nH]nnc3c2)cc(OC)c1OC [Compound C37] | < 1.8

same assay, conditions: OAC1 1 μM, BIO 2 μM, BIX 2 μM, AzaC 2 μM, Vc 25 μg/ml, Am580 10 nM, tranylcypromine 5 μM, VPA 0.5 mM; two days

Row | SMILES | induction of Oct4-luc, comparison with known reprogramming enhancers (in words)
9 | N[C@@H]1C[C@H]1c1ccccc1 (racemic) [tranylcypromine, reference compound] | no significant effect
10 | COc1cc2nc(N3CCCN(C)CC3)nc(NC3CCN(Cc4ccccc4)CC3)c2cc1OC [BIX, reference compound] | no significant effect
11 | CC1(C)CCC(C)(C)c2cc(C(=O)Nc3ccc(C(=O)O)cc3)ccc21 [Am580, reference compound] | no significant effect
12 | O=C1O[C@H]([C@@H](O)CO)C(O)=C1O [Vc, Vitamin C, reference compound] | no significant effect

same assay, conditions: compound at 1 μM, Oct4-luc cells, triplicates

Row | SMILES | Oct4-luc Activity | Oct4-luc fold Induction [fold]
13 | O=C(Nc1ccc2[nH]nnc2c1)c1cccc(Cl)c1 [Compound C31] | + (molecules that induce Oct4-luc less than 1.8-fold were indicated as “+”) | 1.0
14 | O=C(Nc1ccc2[nH]ncc2c1)c1ccccc1Br [Compound C24] | + (molecules that induce Oct4-luc less than 1.8-fold were indicated as “+”) | 1.5
15 | Cc1nc2cc(NC(=O)c3ccc([N+](=O)[O-])cc3)ccc2[nH]1 [Compound C32] | + (molecules that induce Oct4-luc less than 1.8-fold were indicated as “+”) | 1.3
16 | CCOc1ccc(C(=O)Nc2ccc3[nH]ncc3c2)cc1OCC [Compound C30] | + (molecules that induce Oct4-luc less than 1.8-fold were indicated as “+”) | 1.0
17 | O=C(Nc1ccc2[nH]ncc2c1)c1cccc(Cl)c1 [Compound C19] | + (molecules that induce Oct4-luc less than 1.8-fold were indicated as “+”) | 1.6
18 | COc1cccc(C(=O)Nc2ccc3[nH]ncc3c2)c1OC [Compound C27] | + (molecules that induce Oct4-luc less than 1.8-fold were indicated as “+”) | 1.4
19 | CCOc1cccc(C(=O)Nc2ccc3[nH]ncc3c2)c1 [OAC14] | ++ (Compounds that induce Oct4-luc 1.8-fold or more were classified as “++”) | 2.7
20 | O=C(Nc1ccc2[nH]ccc2c1)c1ccc2nonc2c1 [OAC5] | ++ (Compounds that induce Oct4-luc 1.8-fold or more were classified as “++”) | 2.9
21 | O=C(Nc1ccc2[nH]ncc2c1)c1cccc(C(F)(F)F)c1 [Compound C21] | + (molecules that induce Oct4-luc less than 1.8-fold were indicated as “+”) | 1.2
22 | COc1ccccc1C(=O)Nc1ccc2[nH]ncc2c1 [Compound C25] | + (molecules that induce Oct4-luc less than 1.8-fold were indicated as “+”) | 1.5
23 | O=C(Nc1ccc2[nH]ncc2c1)c1cccc(Br)c1 [Compound C20] | + (molecules that induce Oct4-luc less than 1.8-fold were indicated as “+”) | 1.5
24 | O=C(Nc1ccc2[nH]ncc2c1)c1ccccc1Cl [Compound C23] | + (molecules that induce Oct4-luc less than 1.8-fold were indicated as “+”) | 1.7
25 | CN(C)c1ccc(C(=O)Nc2ccc3[nH]ncc3c2)cc1 [OAC17] | ++ (Compounds that induce Oct4-luc 1.8-fold or more were classified as “++”) | 4.2
26 | O=C(Nc1ccc2[nH]ncc2c1)c1ccccc1 [OAC8] | ++ (Compounds that induce Oct4-luc 1.8-fold or more were classified as “++”) | 1.9
27 | COc1ccc(C(=O)Nc2ccc3[nH]ncc3c2)c(OC)c1 [Compound C28] | + (molecules that induce Oct4-luc less than 1.8-fold were indicated as “+”) | 1.4
28 | O=C(Nc1ccc2[nH]ncc2c1)c1cccc(F)c1 [Compound C18] | + (molecules that induce Oct4-luc less than 1.8-fold were indicated as “+”) | 1.3
29 | COc1ccc(C(=O)Nc2ccc3[nH]ncc3c2)cc1 [OAC6] | ++ (Compounds that induce Oct4-luc 1.8-fold or more were classified as “++”) | 3.2
30 | COc1ccc(C(=O)Nc2ccc3[nH]c(C)cc3c2)cc1 [OAC16] | ++ (Compounds that induce Oct4-luc 1.8-fold or more were classified as “++”) | 3
31 | CCOc1ccccc1C(=O)Nc1ccc2[nH]ncc2c1 [Compound C26] | + (molecules that induce Oct4-luc less than 1.8-fold were indicated as “+”) | 1.2

same assay, conditions: compound at 1 μM, Oct4-luc cells, triplicates; read-out: Oct4-luc fold Induction

Row | SMILES | fold induction at 1 µM
32 | O=C(Nc1ccc2[nH]ncc2c1)c1c(F)c(F)c(F)c(F)c1F [Compound C36] | 1
33 | O=C(CCCCC1SCC2NC(=O)NC21)NCc1ccc(C(=O)Nc2ccc3[nH]ncc3c2)cc1 (centres unmarked) [Compound C42] | 0.91
34 | Nc1ccc(C(=O)Nc2ccc3[nH]ncc3c2)cc1 [Compound C39] | 1.62
35 | NCc1ccc(C(=O)Nc2ccc3[nH]ncc3c2)cc1 [Compound C41] | 1.01
36 | COc1ccc(Cl)cc1C(=O)Nc1ccc2[nH]ncc2c1 [Compound C34] | 1.23
37 | CC(C)(C)OC(=O)Nc1ccc(C(=O)Nc2ccc3[nH]ncc3c2)cc1 [Compound C38] | 1.2
38 | COc1cc(OC)c(C(=O)Nc2ccc3[nH]ncc3c2)cc1OC [Compound C33] | 1
39 | COc1cc(C(=O)Nc2ccc3[nH]nnc3c2)cc(OC)c1OC [Compound C37] | 1.05

tested on: human Nanog promoter; assay: Nanog-luc luciferase reporter assay (stably transfected CV1 cells); type: cell-based; settings: Chlorocebus aethiops, CV-1; compound at 1 μM, Nanog-luc cells, triplicates
Description: Oct4, Sox2, and Nanog form a positive regulatory loop to regulate the expression of each other, and Nanog is considered a downstream target gene of Oct4 and Sox2 (37). Therefore, activation of Nanog promoter was used as a validation assay for the identified compounds. Specifically, the Oct4 promoter-activating compounds were tested to ascertain whether they activate a human
Nanog promoter-driven luciferase reporter gene using in triplicate luciferase reporter assays.
as §1, §2, §3

Row | SMILES | fold induction at 1 µM
40 | O=C(Nc1ccc2[nH]ncc2c1)c1c(F)c(F)c(F)c(F)c1F [Compound C36] | 1.02
41 | O=C(CCCCC1SCC2NC(=O)NC21)NCc1ccc(C(=O)Nc2ccc3[nH]ncc3c2)cc1 (centres unmarked) [Compound C42] | 0.97
42 | Nc1ccc(C(=O)Nc2ccc3[nH]ncc3c2)cc1 [Compound C39] | 1.55
43 | NCc1ccc(C(=O)Nc2ccc3[nH]ncc3c2)cc1 [Compound C41] | 1.06
44 | COc1ccc(Cl)cc1C(=O)Nc1ccc2[nH]ncc2c1 [Compound C34] | 1.38
45 | CC(C)(C)OC(=O)Nc1ccc(C(=O)Nc2ccc3[nH]ncc3c2)cc1 [Compound C38] | 1.09
46 | COc1cc(OC)c(C(=O)Nc2ccc3[nH]ncc3c2)cc1OC [Compound C33] | 1.1
47 | COc1cc(C(=O)Nc2ccc3[nH]nnc3c2)cc(OC)c1OC [Compound C37] | 1.08

same assay, conditions: OAC1 1 μM, BIO 2 μM, BIX 2 μM, AzaC 2 μM, Vc 25 μg/ml, Am580 10 nM, tranylcypromine 5 μM, VPA 0.5 mM; two days

Row | SMILES | induction of Nanog-luc, comparison with known reprogramming enhancers (in words)
48 | N[C@@H]1C[C@H]1c1ccccc1 (racemic) [tranylcypromine, reference compound] | no significant effect
49 | COc1cc2nc(N3CCCN(C)CC3)nc(NC3CCN(Cc4ccccc4)CC3)c2cc1OC [BIX, reference compound] | no significant effect
50 | CC1(C)CCC(C)(C)c2cc(C(=O)Nc3ccc(C(=O)O)cc3)ccc21 [Am580, reference compound] | no significant effect
51 | O=C1O[C@H]([C@@H](O)CO)C(O)=C1O [Vc, Vitamin C, reference compound] | no significant effect

same assay, conditions: compound at 1 μM, Nanog-luc cells, triplicates

Row | SMILES | Nanog-luc fold Induction [fold]
52 | O=C(Nc1ccc2[nH]nnc2c1)c1cccc(Cl)c1 [Compound C31] | 1.1
53 | O=C(Nc1ccc2[nH]ncc2c1)c1ccccc1Br [Compound C24] | 1.6
54 | Cc1nc2cc(NC(=O)c3ccc([N+](=O)[O-])cc3)ccc2[nH]1 [Compound C32] | 1.2
55 | CCOc1ccc(C(=O)Nc2ccc3[nH]ncc3c2)cc1OCC [Compound C30] | 1.1
56 | O=C(Nc1ccc2[nH]ncc2c1)c1cccc(Cl)c1 [Compound C19] | 1.5
57 | COc1cccc(C(=O)Nc2ccc3[nH]ncc3c2)c1OC [Compound C27] | 1.4
58 | CCOc1cccc(C(=O)Nc2ccc3[nH]ncc3c2)c1 [OAC14] | 2.6
59 | O=C(Nc1ccc2[nH]ccc2c1)c1ccc2nonc2c1 [OAC5] | 2.4
60 | O=C(Nc1ccc2[nH]ncc2c1)c1cccc(C(F)(F)F)c1 [Compound C21] | 1.2
61 | COc1ccccc1C(=O)Nc1ccc2[nH]ncc2c1 [Compound C25] | 1.6
62 | O=C(Nc1ccc2[nH]ncc2c1)c1cccc(Br)c1 [Compound C20] | 1.1
63 | O=C(Nc1ccc2[nH]ncc2c1)c1ccccc1Cl [Compound C23] | 1.6
64 | CN(C)c1ccc(C(=O)Nc2ccc3[nH]ncc3c2)cc1 [OAC17] | 4.56
65 | O=C(Nc1ccc2[nH]ncc2c1)c1ccccc1 [OAC8] | 1.8
66 | COc1ccc(C(=O)Nc2ccc3[nH]ncc3c2)c(OC)c1 [Compound C28] | 1.4
67 | O=C(Nc1ccc2[nH]ncc2c1)c1cccc(F)c1 [Compound C18] | 1.2
68 | COc1ccc(C(=O)Nc2ccc3[nH]ncc3c2)cc1 [OAC6] | 2.9
69 | COc1ccc(C(=O)Nc2ccc3[nH]c(C)cc3c2)cc1 [OAC16] | 3.43
70 | CCOc1ccccc1C(=O)Nc1ccc2[nH]ncc2c1 [Compound C26] | 1.2
